Test results reported in US11149024B2, “Synthesis of Mcl-1 inhibitor” (ASTRAZENECA AB, priority 2017, dated 2021).

Legend:
Type in all cases: cell-based
[1] = tested on: MOLP-8 (multiple myeloma) cells; assay: Caspase Activity assay (Caspase-Glo 3/7), MOLP-8; conditions: Homo sapiens; MOLP-8 cells, 6 h treatment, induction of apoptosis
Procedure: (§1) Caspase Activity assay: This is a cell assay to measure the induction of apoptosis in MOLP-8 (multiple myeloma), KMS-12-BM (multiple myeloma), MV4; 11 (acute myeloid leukemia), and NCI-H23 (non-small cell lung cancer) cells after 6 h treatment with Mcl-1 inhibitors. On the first day, 3000 (MOLP-8, KMS-12-BM, MV4; 11) or 1250 (NCI-H23) cells/well were seeded with 50 μL of growth media (IMDM+10% FBS+2 mM L-Glu for MV4; 11 and RPMI-1640+10% FBS+2 mM L-Glu for all others) in 384-well white microplates, and incubated overnight (37° C., 5% C02, 80% RH). On the second day, the cells were treated with Compound I using an ECHO acoustic liquid handler (10 point half-log serial dilution, 31.5 μM top concentration, 0.3% final DMSO concentration). After 6 h incubation (37° C., 5% C02, 80% RH), 25 μL of Caspase-Glo 3/7 reagent (Promega) was added into each well, and plates were incubated at room temperature for 30 min protected from light. Luminescence was recorded using an Infinite M200 microplate reader (Tecan) with a 100 ms integration time.

[2] = tested on: KMS-12-BM (multiple myeloma) cells; assay: Caspase Activity assay (Caspase-Glo 3/7), KMS-12-BM; conditions: Homo sapiens; KMS-12-BM cells, 6 h treatment, induction of apoptosis
Procedure: as §1

[3] = tested on: MV4; 11 (acute myeloid leukemia) cells; assay: Caspase Activity assay (Caspase-Glo 3/7), MV4; 11; conditions: Homo sapiens, 11 cells, 6 h treatment, induction of apoptosis
Procedure: as §1

[4] = tested on: NCI-H23 (non-small cell lung cancer) cells; assay: Caspase Activity assay (Caspase-Glo 3/7), NCI-H23; conditions: Homo sapiens, 6 h treatment, induction of apoptosis
Procedure: as §1

EC50 [1]: 30 nM | EC50 [2]: 43 nM | EC50 [3]: 20 nM | EC50 [4]: 193 nM
Compound: Cc1c2c(nn1C)CSCc1cc(n(C)n1)CSc1cc(c3ccccc3c1)OCCCc1c(C(=O)O)n(C)c3c-2c(Cl)ccc13 (atropisomer, axis not shown; (Ra)) [Compound I, (Ra)-(+)-17-chloro-5,13,14,22-tetramethyl-28-oxa-2,9-dithia-5,6,12,13,22-pentaazaheptacyclo[27.7.1.1^4,7.0^11,15.0^16,21.0^20,24.0^30,35]octatriaconta-1(37),4(38),6,11,14,16,18,20,23,29,31,33,35-tridecaene-23-carboxylic acid]
